# Reference: patent US20140039044A1, “Hydroxylated Polymethoxyflavone Compositions” (WLLGEN, INC., priority 2006, published 2014)
# Where two headings read alike, the source gives them in different places.
# Legend:
# HT-29 cells [1] = assay: Cell cycle distribution by flow cytometry; format: cell-based, human; conditions: for Cell Cycle Distribution G0/G1 / Cell Cycle Distribution G2/M / Cell Cycle Distribution S: 24 h
# Method: (§1) The human cancer cells (2×10^5) were cultured in 60-mm Petri dishes and incubated for 24 h. After treated with test compounds for 24 h, the cells were then harvested, washed with PBS resuspended in 200 μL of PBS, and fixed in 800 μL of iced 100% ethanol at −20° C. After being left to stand overnight, the cell pellets were collected by centrifugation, resuspended in 1 mL of hypotonic buffer (0.5% Triton X-100 in PBS and 0.5 μg/mL RNase) and incubated at 37° C. for 30 min. Next, 1 mL of propidium iodide solution (50 μg/mL) was added, and the mixture was allowed to stand on ice for 30 min. Fluorescence emitted from the propidium iodide-DNA complex was quantitated after excitation of the fluorescent dye by FACScan cytometry (Becton Dickinson, San Jose, Calif.).
# (§2) Compounds A-K were evaluated in terms of their effects in arresting cell cycle progression by observing cell cycle phase distribution in cells treated with the compounds. Cells were treated with 5, 10, 25, 50, and 100 μM of one of compound A-K or DMSO (control) for 24 h and subjected to flow cytometric analysis after staining their DNA, as described above.
# Similar cell cycle phase distribution studies were performed in AGS, COLO205, and HT-29 cells in response to individual PMFs, with results reported in Tables 11, 12 and 13, respectively.
# [2] = tested on: LPS-induced nitrite production in RAW 264.7 macrophages; assay: Nitrite assay (Griess reaction); format: cell-based, mouse; conditions: 100 ng/ml LPS, PMF 30 μM, 24 h, FIG. 3
# Method: Compounds or compositions were tested for anti-inflammatory effects by monitoring nitrite production in LPS-activated RAW264.7 cells. After treating the cells with LPS or LPS and test substance, supernatants were harvested and the amount of nitrite, an indicator of NO synthesis, was measured by use of the Griess reaction. Briefly, supernatants (100 μl) were mixed with the same volume of Griess reagent (1% sulphanilamide in 5% phosphoric acid and 0.1% naphthylethylenediamine dihydrochloride in water) in duplicate on 96-well plates. After incubation at room temperature for 10 min, absorbance at 570 nm was measured with a ELISA reader (Thermo Labsystems Multiskan Ascent, Finland).
# The anti-inflammatory effects of compounds A-K were tested by measuring nitrite production in LPS-activated RAW 264.7 macrophages, as described in Section 8.4 above. Macrophages were treated with 100 ng/ml LPS alone or LPS and PMF (10 or 30 μM) for 24 h. At the end of incubation time, 100 μl of the culture medium was collected for the nitrite assay.
# HL-60 cells [3] = assay: Apoptotic ratio by propidium iodide flow cytometry (AC50); format: cell-based, human; conditions: HL-60 cells, read-out: Apoptosis-inducing AC50
# Method: as §1
# (§3) 1 N PMF and 6 N PMF compositions containing hydroxylated PMFs, prepared as described in Section 8.3 above, 70% PMF OPE and 5,6,7,8,3′,4′-hexamethoxyflavone (nobiletin) were tested for antiproliferative activity and apoptosis-inducing activity in HL-60, AGS and COLO205 cells as described in Section 8.4 above. Antiproliferative and apoptosis-inducing activities were derived as IC50 values and AC50, values, respectively, where AC50 is the concentration required for 50% apoptosis.
# (§4) The PMF compounds were assayed in vitro for cell growth inhibition and for their ability to induce apoptosis in various human cancer cells, including HL-60, AGS, COLO 205, and HT-29 cells, using methods described in Section 8.4 above. Antiproliferative (IC50) and apoptosis-inducing activity (AC50) of PMFs in the HL-60, AGS, COLO 205, and HT-29 cells are reported in Table 9, where *P<0.05, **P<0.01 and ***P<0.001 indicate statistically significant differences from the control group.
# COLO205 cells = assay: as above; format: cell-based, human; conditions: COLO205 cells, read-out: Apoptosis-inducing AC50
# Method: as §1, §3, §4
# AGS cells = assay: as above; format: cell-based, human; conditions: AGS cells, read-out: Apoptosis-inducing AC50
# Method: as §1, §3, §4
# HL-60 cells [4] = assay: Cell cycle distribution by flow cytometry; format: cell-based, human; conditions: 24 h; for Cell Cycle Distribution G0/G1 / Cell Cycle Distribution G2/M / Cell Cycle Distribution S: Table 10
# Method: as §1
# The effects of the hydrolyzed PMF-enriched compositions, nobiletin and 70% PMF OPE on cell cycle distribution were studied, following the procedures described in Section 8.4. Results for cell cycle distribution in HL-60 cells, COLO205 cells and AGS cells are provided in Table 5, Table 6 and Table 7, respectively. […] In HL-60 cells, G2/M arrest predominated in cells treated with 6N PMF concentrations ≧5 μM and with 1N PMF concentrations ≧25 μM.
# as §2
# HT-29 cells [5] = assay: Apoptotic ratio by propidium iodide flow cytometry (AC50); format: cell-based, human; conditions: read-out: Apoptosis-inducing AC50
# Method: as §1, §4
SMILES,Cell Cycle Distribution G0/G1 (HT-29 cells [1]; 5 μM),Cell Cycle Distribution G2/M (HT-29 cells [1]; 5 μM),Cell Cycle Distribution S (HT-29 cells [1]; 5 μM),Cell Cycle Distribution G0/G1 (HT-29 cells [1]; 10 μM),Cell Cycle Distribution G2/M (HT-29 cells [1]; 10 μM),Cell Cycle Distribution S (HT-29 cells [1]; 10 μM),Cell Cycle Distribution G0/G1 (HT-29 cells [1]; 25 μM),Cell Cycle Distribution G2/M (HT-29 cells [1]; 25 μM),Cell Cycle Distribution S (HT-29 cells [1]; 25 μM),Cell Cycle Distribution G0/G1 (HT-29 cells [1]; 50 μM),Cell Cycle Distribution G2/M (HT-29 cells [1]; 50 μM),Cell Cycle Distribution S (HT-29 cells [1]; 50 μM),Cell Cycle Distribution G0/G1 (HT-29 cells [1]; 100 μM),Cell Cycle Distribution G2/M (HT-29 cells [1]; 100 μM),Cell Cycle Distribution S (HT-29 cells [1]; 100 μM),Cell Cycle Distribution G0/G1 (HL-60 cells [4]; 5 μM),Cell Cycle Distribution G2/M (HL-60 cells [4]; 5 μM),Cell Cycle Distribution S (HL-60 cells [4]; 5 μM),Cell Cycle Distribution G0/G1 (HL-60 cells [4]; 10 μM),Cell Cycle Distribution G2/M (HL-60 cells [4]; 10 μM),other results
"COc1ccc(-c2oc3c(OC)c(OC)c(OC)c(OC)c3c(=O)c2O)cc1OC [B, 3-hydroxy-5,6,7,8,3′,4-hexamethoxyflavone]",63.71 ± 1.80,6.50 ± 0.37,29.8 ± 1.42,69.27 ± 3.06,5.60 ± 0.85,25.14 ± 2.21,70.85 ± 1.84,4.37 ± 0.62,24.8 ± 1.23,70.11 ± 1.44,10.73 ± 0.47,19.18 ± 0.96,66.75 ± 1.06,8.82 ± 0.26,24.45 ± 0.80,42.63 ± 0.85,9.99 ± 1.70,47.38 ± 0.42,40.76 ± 0.28,0.23 ± 0.42,Rank of inhibitory potency on LPS-induced nitrite production [2]: H>G>K>C>I>B; AC50 (HL-60 cells [3]): 56.5 ± 2.39 µM; AC50 (COLO205 cells): > 100 µM; AC50 (AGS cells): > 100 µM; Cell Cycle Distribution S (HL-60 cells [4]; 10 μM): 59.01 ± 0.78; Cell Cycle Distribution G0/G1 (HL-60 cells [4]; 25 μM): 47.74 ± 0.71; Cell Cycle Distribution G2/M (HL-60 cells [4]; 25 μM): 0.00 ± 0.64; Cell Cycle Distribution S (HL-60 cells [4]; 25 μM): 52.26 ± 0.64; Cell Cycle Distribution G0/G1 (HL-60 cells [4]; 50 μM): 41.48 ± 0.85; Cell Cycle Distribution G2/M (HL-60 cells [4]; 50 μM): 0.00 ± 0.57; Cell Cycle Distribution S (HL-60 cells [4]; 50 μM): 58.52 ± 0.42; Cell Cycle Distribution G0/G1 (HL-60 cells [4]; 100 μM): 49.63 ± 0.28; Cell Cycle Distribution G2/M (HL-60 cells [4]; 100 μM): 0.51 ± 0.64; Cell Cycle Distribution S (HL-60 cells [4]; 100 μM): 43.86 ± 0.21; AC50 (HT-29 cells [5]): > 100 µM
"COc1cc(-c2cc(=O)c3c(OC)c(OC)c(OC)c(OC)c3o2)cc(OC)c1OC [F, 5,6,7,8,3′,4′,5′-heptamethoxyflavone, reference compound]",70.24 ± 0.52,7.11 ± 0.17,22.66 ± 0.35,76.34 ± 0.35,7.06 ± 0.42,16.61 ± 0.06,82.19 ± 0.16,6.83 ± 0.61,10.98 ± 0.45,88.64 ± 0.27,6.25 ± 0.58,5.11 ± 0.31,89.85 ± 0.13,6.07 ± 0.06,4.10 ± 0.06,42.11 ± 0.37,10.56 ± 1.16,47.34 ± 1.53,48.35 ± 1.83,10.59 ± 1.46,"Cell cycle arrest, in words (HT-29 cells [1]; 5-100 μM, 24 h exposure): significant accumulation of cells in G1 phase; AC50 (HL-60 cells [3]; Homo sapiens): > 100 µM; AC50 (COLO205 cells; Homo sapiens, COLO 205): > 100 µM; AC50 (AGS cells; Homo sapiens): > 100 µM; Cell Cycle Distribution S (HL-60 cells [4]; 10 μM): 41.07 ± 0.37; Cell Cycle Distribution G0/G1 (HL-60 cells [4]; 25 μM): 57.82 ± 1.51; Cell Cycle Distribution G2/M (HL-60 cells [4]; 25 μM): 7.28 ± 1.54; Cell Cycle Distribution S (HL-60 cells [4]; 25 μM): 34.90 ± 0.03; Cell Cycle Distribution G0/G1 (HL-60 cells [4]; 50 μM): 60.39 ± 0.23; Cell Cycle Distribution G2/M (HL-60 cells [4]; 50 μM): 8.44 ± 0.54; Cell Cycle Distribution S (HL-60 cells [4]; 50 μM): 31.18 ± 0.30; Cell Cycle Distribution G0/G1 (HL-60 cells [4]; 100 μM): 63.66 ± 2.33; Cell Cycle Distribution G2/M (HL-60 cells [4]; 100 μM): 4.92 ± 0.46; Cell Cycle Distribution S (HL-60 cells [4]; 100 μM): 31.43 ± 1.87; Cell cycle arrest, in words (HL-60 cells [4]; 25-100 μM): significant G1 arrest; AC50 (HT-29 cells [5]; Homo sapiens): > 100 µM"
"COc1ccc(-c2cc(=O)c3c(O)c(OC)c(OC)c(OC)c3o2)cc1OC [J, 5-hydroxy-6,7,8,3′,4′-pentamethoxyflavone]",64.81 ± 0.41,9.52 ± 0.05,25.68 ± 0.46,62.87 ± 0.40,9.02 ± 0.16,28.11 ± 0.57,62.04 ± 1.24,8.46 ± 0.09,29.51 ± 1.15,60.39 ± 0.28,9.93 ± 0.06,29.55 ± 0.52,62.44 ± 1.00,7.89 ± 0.69,29.67 ± 1.68,53.10 ± 0.46,7.94 ± 0.06,38.96 ± 0.51,51.74 ± 1.57,9.06 ± 0.54,"AC50 (HL-60 cells [3]; Homo sapiens): > 100 µM; AC50 (COLO205 cells; Homo sapiens, COLO 205): > 100 µM; AC50 (AGS cells; Homo sapiens): > 100 µM; Cell Cycle Distribution S (HL-60 cells [4]; 10 μM): 39.20 ± 2.10; Cell Cycle Distribution G0/G1 (HL-60 cells [4]; 25 μM): 51.30 ± 1.68; Cell Cycle Distribution G2/M (HL-60 cells [4]; 25 μM): 8.20 ± 1.19; Cell Cycle Distribution S (HL-60 cells [4]; 25 μM): 40.50 ± 2.87; Cell Cycle Distribution G0/G1 (HL-60 cells [4]; 50 μM): 49.22 ± 0.13; Cell Cycle Distribution G2/M (HL-60 cells [4]; 50 μM): 7.93 ± 0.36; Cell Cycle Distribution S (HL-60 cells [4]; 50 μM): 42.86 ± 0.48; Cell Cycle Distribution G0/G1 (HL-60 cells [4]; 100 μM): 51.29 ± 0.74; Cell Cycle Distribution G2/M (HL-60 cells [4]; 100 μM): 7.45 ± 0.83; Cell Cycle Distribution S (HL-60 cells [4]; 100 μM): 41.27 ± 0.09; AC50 (HT-29 cells [5]; Homo sapiens): > 100 µM"
